Target: rat mGlu2 (Rattus norvegicus (Rat), UniProt P31421)
Assay: mGlu2 Ca2+ flux assay
Type: cell-based
Details: for IC50: Gα15 HEK293 cells stably expressing rat mGlu2, glutamate EC80, >10,000 = no plateau, >30,000 = no measurable activity; for remaining activity at 30 µM / rat mGlu2 Glu max: amplitude of response in the presence of 30 μM test compound as percentage of maximal response to glutamate; for remaining activity at 30 µM: read-out: rat mGlu2 Glu max
Method in brief: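 Gα15 HEK293 cells stably expressing rat mGlu2, Fluo-4 loaded; compound added, then glutamate at EC20 after 2.3 min and EC80 afterward, calcium flux read as F/F0. Peak amplitude around EC80 addition normalized to glutamate max; IC50 by unconstrained 4-parameter fit, top concentration 30 μM.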

rat mGlu2, sequence (P31421 19-872): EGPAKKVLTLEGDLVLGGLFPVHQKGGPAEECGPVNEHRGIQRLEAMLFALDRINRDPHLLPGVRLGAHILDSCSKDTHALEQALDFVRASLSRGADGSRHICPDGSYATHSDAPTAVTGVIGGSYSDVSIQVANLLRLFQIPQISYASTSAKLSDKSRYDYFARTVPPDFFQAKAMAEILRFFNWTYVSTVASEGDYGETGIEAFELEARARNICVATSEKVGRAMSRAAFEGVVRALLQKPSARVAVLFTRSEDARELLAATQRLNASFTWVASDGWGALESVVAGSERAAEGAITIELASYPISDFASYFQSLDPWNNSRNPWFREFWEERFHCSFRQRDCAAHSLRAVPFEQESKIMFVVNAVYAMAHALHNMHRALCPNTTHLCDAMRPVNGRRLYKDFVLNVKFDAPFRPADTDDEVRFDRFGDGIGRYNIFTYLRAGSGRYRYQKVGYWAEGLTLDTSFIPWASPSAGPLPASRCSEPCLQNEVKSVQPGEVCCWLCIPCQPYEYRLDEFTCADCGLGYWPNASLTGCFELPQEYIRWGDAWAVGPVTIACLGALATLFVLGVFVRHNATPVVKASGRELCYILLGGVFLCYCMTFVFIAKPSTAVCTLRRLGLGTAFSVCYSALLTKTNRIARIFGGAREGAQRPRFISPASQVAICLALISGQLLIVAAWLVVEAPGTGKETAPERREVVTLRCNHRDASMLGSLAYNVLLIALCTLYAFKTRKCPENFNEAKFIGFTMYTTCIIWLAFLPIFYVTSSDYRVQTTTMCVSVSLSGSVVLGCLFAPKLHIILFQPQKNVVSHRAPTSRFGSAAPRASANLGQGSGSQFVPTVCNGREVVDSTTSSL

Structure (SMILES) | IC50 [µM] | remaining activity at 30 µM [%] | rat mGlu2 Glu max [%] | NAM designation (concentration-dependent decrease in the glutamate EC80 response)
NC(=O)c1cc(-c2ccc(F)cc2)c(OCc2cccc(Br)c2F)cn1 [Compound 81, 5-((3-bromo-2-fluorobenzyl)oxy)-4-(4-fluorophenyl)picolinamide] | 1.53 | 2.19 | – | –
NC(=O)c1cc(-c2ccc(F)cc2)c(OCCOc2cccc(F)c2)cn1 [Compound 108, 5-(2-(3-fluorophenoxy)ethoxy)-4-(4-fluorophenyl)picolinamide] | 2.38 | 1.95 | – | –
NC(=O)c1cc(-c2ccc(F)cc2)c(N2CCC(Oc3cccnc3)CC2)cn1 [Compound 140, 4-(4-fluorophenyl)-5-(4-(pyridin-3-yloxy)piperidin-1-yl)picolinamide] | > 10 | 29.8 | – | –
Cc1ncc(OCCOc2cnc(C(N)=O)cc2-c2ccc(F)cc2)cn1 [Compound 119, 4-(4-fluorophenyl)-5-(2-((2-methylpyrimidin-5-yl)oxy)ethoxy)picolinamide] | > 10 | 20.3 | – | –
NC(=O)c1cc(-c2ccc(F)cc2)c(OCCOc2cncc(F)c2)cn1 [Compound 112] | 0.827 | – | 0.05 | –
NC(=O)c1cc(-c2ccc(F)cc2)c(OCCCN2CCOCC2)cn1 [Compound 100, 4-(4-fluorophenyl)-5-(3-morpholinopropoxy)picolinamide] | > 10 | 46.8 | – | –
NC(=O)c1cc(-c2ccc(F)cc2)c(OCc2cc(F)cc(F)c2)cn1 [Compound 30, 5-((3,5-difluorobenzyl)oxy)-4-(4-fluorophenyl)picolinamide] | 0.401 | 18.7 | – | (Partial NAM)
CC1(C)CN(CCCOc2cnc(C(N)=O)cc2-c2ccc(F)cc2)CCO1 [Compound 98, 5-(3-(2,2-dimethylmorpholino)propoxy)-4-(4-fluorophenyl)picolinamide] | 3.25 | 0.97 | – | –
Cc1ccc(OCCCOc2cnc(C(N)=O)cc2-c2ccc(F)cc2)cn1 [Compound 129] | 2.87 | – | 2.91 | –
Cc1cc(COc2cnc(C(N)=O)cc2-c2ccc(F)cc2)ccn1 [Compound 45, 4-(4-fluorophenyl)-5-((2-methylpyridin-4-yl)methoxy)picolinamide] | 0.195 | 1.17 | – | –
NC(=O)c1cc(-c2ccc(F)cc2)c(OCCCOc2ccnc(C(F)(F)F)c2)cn1 [Compound 127, 4-(4-fluorophenyl)-5-(3-((2-(trifluoromethyl)pyridin-4-yl)oxy)propoxy)picolinamide] | 1.59 | 2.03 | – | –
COc1ccc(COc2cnc(C#N)cc2-c2ccc(F)cc2)cn1 [Compound 15, 4-(4-fluorophenyl)-5-((6-methoxypyridin-3-yl)methoxy)picolinonitrile] | > 30 | – | – | –
NC(=O)c1cc(-c2ccc(F)cc2)c(OCc2cncs2)cn1 [Compound 51, 4-(4-fluorophenyl)-5-(thiazol-5-ylmethoxy)picolinamide] | 0.263 | 1.01 | – | –
N#Cc1cc(-c2ccc(F)cc2)c(OCCc2cccnc2)cn1 [Compound 23, 4-(4-fluorophenyl)-5-(2-(pyridin-3-yl)ethoxy)picolinonitrile] | > 30 | – | – | –
CC(CN1CCOCC1)Nc1cnc(C#N)cc1-c1ccc(F)cc1 (centres unmarked) [Compound 4, 4-(4-fluorophenyl)-5-((1-morpholinopropan-2-yl)amino)picolinonitrile] | > 10 | 46.6 | – | –
Cc1ccc(OC2CCN(c3cnc(C(N)=O)cc3-c3ccc(F)cc3)CC2)cn1 [Compound 139, 4-(4-fluorophenyl)-5-(4-((6-methylpyridin-3-yl)oxy)piperidin-l-yl)picolinamide] | 9.59 | – | 7.04 | –
NC(=O)c1cc(-c2ccc(F)cc2)c(N2CCC(Oc3ccc(C(F)(F)F)nc3)CC2)cn1 [Compound 77, 4-(4-Fluorophenyl)-5-(4-((6-(trifluoromethyl)pyridin-3-yl)oxy)piperidin-1-yl)picolinamide] | > 30 | 35.1 | – | –
NC(=O)c1cc(-c2ccc(F)cc2)c(OCCOc2cncc(Br)c2)cn1 [Compound 111, 5-(2-((5-bromopyridin-3-yl)oxy)ethoxy)-4-(4-fluorophenyl)picolinamide] | 0.624 | 1.34 | – | –
Cn1cc(-c2cc(C(N)=O)ncc2OCc2ccc(C(F)(F)F)nc2)cn1 [Compound 87, 4-(1-methyl-1H-pyrazol-4-y1)-5-((6-(trifluoromethyl)pyridin-3-yl)methoxy)picolinamide] | > 10 | – | 29.69 | –
NC(=O)c1cc(-c2ccc(F)cc2)c(OCCCN2CCC(F)(F)CC2)cn1 [Compound 96, 5-(3-(4,4-difluoropiperidin-1-yl)propoxy)-4-(4-fluorophenyl)picolinamide] | 3.27 | 7.38 | – | –

Structure (SMILES) | IC50 [µM] | remaining activity at 30 µM [%] | rat mGlu2 Glu max [%] | NAM designation (concentration-dependent decrease in the glutamate EC80 response)
NC(=O)c1cc(-c2ccc(F)cc2)c(OCCN2CCOCC2)cn1 [Compound 94, 4-(4-fluorophenyl)-5-(2-morpholinoethoxy)picolinamide] | > 10 | 49 | – | –
Cn1ccc(COc2cnc(C#N)cc2-c2ccc(F)cc2)n1 [Compound 22, 4-(4-fluorophenyl)-5-((1-methyl-1H-pyrazol-3-yl)methoxy)picolinonitrile] | > 10 | 11.1 | – | –
N#Cc1cccc(COc2cnc(C#N)cc2-c2ccc(F)cc2)c1 [Compound 11, 5-((3-cyanobenzyl)oxy)-4-(4-fluorophenyl)picolinonitrile] | 7.11 | 29.9 | – | –
CN(CCOCc1cncc(F)c1)c1cnc(C#N)cc1-c1ccc(F)cc1 [Compound 76, 4-(4-Fluorophenyl)-5-((2-((5-fluoropyridin-3-yl)methoxy)ethyl)(methyl)amino)picolinonitrile] | > 10 | 33.3 | – | –
COc1ccc(-c2cc(C(N)=O)ncc2OCc2ccnc(C)c2)c(F)c1 [Compound 88, 4-(2-fluoro-4-methoxyphenyl)-5-((2-methylpyridin-4-yl)methoxy)picolinamide] | 0.029 ± 0.005 | 1.65 ± 0.23 | – | –
NC(=O)c1cc(-c2ccc(F)cc2)c(OCCOCc2ccccc2)cn1 [Compound 130, 5-(2-(benzyloxy)ethoxy)-4-(4-fluorophenyl)picolinamide] | 2.25 | 9.91 | – | –
Cc1ncc(OCCOc2cnc(C#N)cc2-c2ccc(F)cc2)cn1 [Compound 75, 4-(4-Fluorophenyl)-5-(2-((2-methylpyrimidin-5-yl)oxy)ethoxy)picolinonitrile] | > 10 | 30.2 | – | –
NC(=O)c1cc(-c2ccc(F)cc2)c(NCCCN2CCOCC2)cn1 [Compound 137, 4-(4-fluorophenyl)-5-((3-morpholinopropyl)amino)picolinamide] | 9.87 | -13.5 | – | –
C[C@@H]1CN(Cc2cnc(C(N)=O)cc2-c2ccc(F)cc2)C[C@H](C)O1 [Compound 79, 5-(((cis)-2,6-dimethylmorpholino)methyl)-4-(4-fluorophenyl)picolinamide] | 0.987 | 0.52 | – | –
Cc1ncc(OCCCOc2cnc(C#N)cc2-c2ccc(F)cc2)cn1 [Compound 64, 4-(4-fluorophenyl)-5-(3-((2-methylpyrimidin-5-yl)oxy)propoxy)picolinonitrile] | > 30 | – | – | –
Cn1cc(-c2cc(C(N)=O)ncc2OCc2cccnc2)cn1 [Compound 82, 4-(1-methyl-1H-pyrazol-4-yl)-5-(pyridin-3-ylmethoxy)picolinamide] | > 30 | – | – | –
NC(=O)c1cc(-c2ccc(F)cc2)c(OCc2cccnn2)cn1 [Compound 49, 4-(4-fluorophenyl)-5-(pyridazin-3-ylmethoxy)picolinamide] | 1.47 | -0.08 | – | –
Cn1cc(-c2cc(C(N)=O)ncc2OCc2cc(F)cc(F)c2)cn1 [Compound 80, 5-((3,5-difluorobenzyl)oxy)-4-(1-methyl-1H-pyrazol-4-yl)picolinamide] | 4.13 | -0.09 | – | –
NC(=O)c1cc(-c2ccc(F)cc2)c(OCCOc2cc(F)cc(F)c2)cn1 [Compound 110, 5-(2-(3,5-difluorophenoxy)ethoxy)-4-(4-fluorophenyl)picolinamide] | 1.72 | 38.7 | – | –
NC(=O)c1cc(-c2ccc(F)cc2)c(N2CCC(Oc3ccnc(C(F)(F)F)c3)CC2)cn1 [Compound 138, 4-(4-fluorophenyl)-5-(4-((2-(trifluoromethyl)pyridin-4-yl)oxy)piperidin-1-yl)picolinamide] | > 10 | – | – | –
N#Cc1cc(-c2ccc(F)cc2)c(OCc2cc(F)cc(F)c2)cn1 [Compound 12, 5-((3,5-difluorobenzyl)oxy)-4-(4-fluorophenyl)picolinonitrile] | > 30 | – | – | –
NC(=O)c1cc(-c2ccc(F)cc2)c(OCc2ccccc2Br)cn1 [Compound 35, 5-((2-bromobenzyl)oxy)-4-(4-fluorophenyl)picolinamide] | 1.11 | 1.55 | – | –
N#Cc1cc(-c2ccc(F)cc2)c(OC2CCN(c3ccnc(C(F)(F)F)c3)CC2)cn1 [Compound 26, 4-(4-fluorophenyl)-5-((1-(2-(trifluoromethyl)pyridin-4-yl)piperidin-4-yl)oxy)picolinonitrile] | > 30 | – | – | –
NC(=O)c1cc(-c2ccc(F)cc2)c(OCCOc2cccnc2)cn1 [Compound 54, 4-(4-fluorophenyl)-5-(2-(pyridin-3-yloxy)ethoxy)picolinamide] | 1.37 | 1.35 | – | –
NC(=O)c1cc(-c2ccc(F)cc2)c(NCCN2CCOCC2)cn1 [Compound 133, 4-(4-fluorophenyl)-5-((2-morpholinoethyl)amino)picolinamide] | 6.54 | -4.31 | – | –
